Assays:
[1] = tested on: tubulin isolated from calf brain; test: Tubulin polymerization assay; type: biochemical
[2] = tested on: HCT116/VM46 human colon carcinoma; test: in vivo
From the text: (§1) The following human tumors were used: A2780 ovarian, A2780Tax ovarian (established from cells obtained from Dr. Antonio Fojo, Medicine Branch, NCI, Bethesda, Md.), HCT116/VM46 colon, Pat-7 ovarian (established from a tumor biopsy provided by Dr. Thomas Hamilton, Fox Chase Cancer Center, Philadelphia, Pa.) from a patient who had developed resistance to TAXOL®). The murine fibrosarcoma M5076 was also employed.
(§2) The following tumors were passaged in the indicated host strain of mouse: murine M5076 fibrosarcoma (M5076) in C57Bl/6 mice; human A2780 and Pat-7 ovarian carcinomas, HCT116, HCT116/VM46 and LS174T colon carcinoma, Pat-21 breast carcinoma in nude mice. Tumor passage occurred biweekly for murine tumors and approximately every two to eight weeks for the various human tumor lines. With regard to efficacy testing, M5076 tumors were implanted in (C57Bl/6×DBA/2)F1 hybrid mice, and human tumors were implanted in nude mice. All tumor implants for efficacy testing were subcutaneous (sc).
(§3) The required number of animals needed to detect a meaningful response were pooled at the start of the experiment and each was given a subcutaneous implant of a tumor fragment (·50 mg) with a 13-gauge trocar. For treatment of early-stage tumors, the animals were again pooled before distribution to the various treatment and control groups. For treatment of animals with advanced-stage disease, tumors were allowed to grow to the predetermined size window (tumors outside the range were excluded) and animals were evenly distributed to various treatment and control groups. Treatment of each animal was based on individual body weight. Treated animals were checked daily for treatment related toxicity/mortality. Each group of animals was weighed before the initiation of treatment (Wt1) and then again following the last treatment dose (Wt2). The difference in body weight (Wt2−Wt1) provides a measure of treatment-related toxicity.
(§4) Tumor weights (mg) were estimated from the formula: Tumor weight=(length×width^2)÷2
Antitumor activity was evaluated at the maximum tolerated dose (MTD) which is defined as the dose level immediately […] which excessive toxicity (i.e. more than one death) occurred. […] When death occurs, the day of death was recorded.
Tumor response end-point was expressed in terms of tumor growth delay (T-C value), defined as the difference in time (days) required for the treated tumors (T) to reach a predetermined target size compared to those of the control group (C).
To estimate tumor cell kill, the tumor volume doubling time was first calculated with the formula:
TVDT=Median time (days) for control tumors to reach target size−Median time (days) for control tumors to reach half the target size
HCT116/VM46 is an MDR-resistant colon carcinoma developed from the sensitive HCT116 parent line.

[3] = tested on: A2780 human ovarian carcinoma; test: In vivo antitumor testing, A2780 in nude mice
Description: (§5) All tumor implants for efficacy testing were subcutaneous (sc).
(§6) The MTD was frequently equivalent to OD. When death occurs, the day of death was recorded.
(§7) And, Log cell kill=T−C÷(3.32×TVDT)

[4] = tested on: Pat-7 human ovarian carcinoma; test: In vivo antitumor testing, Pat-7 in nude rats; conditions: Expt. 15, nude rats, paclitaxel at optimal dose
Description: as §6, §7

MIP = test: In vitro cytotoxicity (MTS assay), MIP; type: cell-based; conditions: MIP (MDR colon tumor line), 72 hour incubation; read-out: IC50
Description: (§8) The in vitro cytotoxicity was assessed in tumor cells by a tetrazolium-based colorimetric assay which takes advantage of the metabolic conversion of MTS (3-(4,5-dimethylthiazol-2-yl)-5-(3-carboxymethoxyphenyl)-2-(4-sulphenyl)-2H-tetrazolium, inner salt) to a reduced form that absorbs light at 492 nm. Cells were seeded 24 hr prior to drug addition. Following a 72 hour incubation at 37° C. with serially diluted compound, MTS, in combination with the electron coupling agent phenazine methosulfate, was added to the cells. The incubation was continued for 3 hours, then the absorbancy of the medium at 492 nm was measured with a spectrophotometer to obtain the number of surviving cells relative to control populations. The results are expressed as median cytotoxic concentrations (IC50 values).

[5] = tested on: Pat-7 human ovarian carcinoma; test: In vivo antitumor testing, Pat-7 in nude mice
Description: as §5, §6, §7
This tumor model was established from a tumor biopsy of an ovarian cancer patient (Pat-7), who was initially responsive to TAXOL® treatment but ultimately developed resistance to it following nine courses of monotherapy with TAXOL®. Prior to treatment with TAXOL®, Pat-7 also received numerous other chemotherapeutic agents including carboplatin, cytoxan, VP-16, ifosfamide and altretamine. Tumor biopsy was taken following development of TAXOL® resistance.

[6] = tested on: M5076 murine fibrosarcoma; test: In vivo antitumor testing, M5076 murine sarcoma; set-up: species or system mice; conditions: optimal schedule
Description: The murine fibrosarcoma M5076 was also employed.
The human tumors were maintained in Balb/c nu/nu nude mice. M5076 was maintained in C57BL/6 mice. Tumors were propagated as subcutaneous transplants in the appropriate mouse strain using tumor fragments obtained from donor mice.
as §5, §6, §7

HCT-116 = test: In vitro cytotoxicity (MTS assay), HCT-116; type: cell-based; conditions: Homo sapiens; HCT-116, 72 hour incubation
Description: HCT116 human carcinoma cell lines and HCT116/VM46 cells, a MDR variant, were maintained in McCoy's 5A medium (GIBCO) and 10% heat inactivated fetal bovine serum (GIBCO). A2780 human ovarian carcinoma cells and A2780Tax cells obtained from Dr. Antonio Fojo (NCI, Bethesda, Md.) were maintained in IMEM (GIBCO) and 10% fetal bovine serum (GIBCO).
as §8

Pat-21 breast carcinoma = tested on: Pat-21 breast carcinoma
From the text: as §2, §3, §4
(§9) Antitumor activity was evaluated at the maximum tolerated dose (MTD) which is defined as the dose level immediately […] which excessive toxicity (i.e. more than one death) occurred. […] When death occurs, the day of death was recorded. […]
(§10) To estimate tumor cell kill, the tumor volume doubling time was first calculated with the formula: […]

[7] = tested on: A2780Tax human ovarian carcinoma; conditions: Expt. 12, IV paclitaxel at its MTD
From the text: as §1
as §2, with “(sc). […]” for “(sc).”
as §9, §10

[8] = tested on: LS174T human colon carcinoma; test: In vivo antitumor testing, LS174T xenograft; set-up: species or system nude mice; conditions: Expt. R578, iv paclitaxel 36 mg/kg/inj every 2 days for 5 doses
Description: as §5, §6, §7

[9] = tested on: A2780 human ovarian carcinoma; test: In vivo antitumor testing, A2780 in nude rats; conditions: nude rats, IV paclitaxel
Description: as §6, §7
A2780 grown in nude rats was also utilized.

C/C(=C\c1csc(C)n1)[C@@H]1C[C@@H]2O[C@]2(C)CCC[C@H](C)[C@H](O)[C@@H](C)C(=O)C(C)(C)[C@@H](O)CC(=O)O1 [Epothilone B]
Ratio of Polymerization Potency of Analog/Paclitaxel [1]: 0.3

CC(=O)O[C@H]1C(=O)[C@@]2(C)[C@H]([C@H](OC(=O)c3ccccc3)[C@]3(O)C[C@H](OC(=O)[C@H](O)[C@@H](NC(=O)c4ccccc4)c4ccccc4)C(C)=C1C3(C)C)[C@]1(OC(C)=O)CO[C@@H]1C[C@@H]2O [Paclitaxel, reference compound]
Paclitaxel LCK ([2]; Expt. 32, IV paclitaxel at its MTD): 0.4 | Paclitaxel LCK ([2]; Expt. 33, IV paclitaxel at its MTD): 0.7 | median LCK of 12 consecutive studies ([2]; paclitaxel at its MTD): 0.35 LCK | Paclitaxel LCK ([3]; Expt. 89, IV paclitaxel at optimal dose): 2 | Paclitaxel LCK ([3]; Expt. 92, IV paclitaxel at optimal dose): 3.5 | Paclitaxel LCK [4]: 2.2 | Paclitaxel cures/total ([4]; listed as PACLITAXEL): (0/6) | Paclitaxel cures/total ([4]; listed as paclitaxel): no cures | IC50 (MIP): > 112 nM | Paclitaxel LCK ([5]; Expt. 8, IV paclitaxel at optimal dose (24-36 mg/kg/inj) and schedule): 1.3 | Paclitaxel (IV) LCK ([5]; Expt. 9, IV paclitaxel at optimal dose (24-36 mg/kg) and schedule): 1.2 | Paclitaxel LCK ([5]; Expt. R403, IV paclitaxel at optimal dose (24-36 mg/kg/inj) and schedule): 0.6 | Paclitaxel LCK ([6]; Expt. 159, IV paclitaxel): 0.1 | Paclitaxel LCK ([6]; Expt. 162, IV paclitaxel): 0.5 | IC50 (HCT-116): 2.1 nM | Paclitaxel LCK (Pat-21 breast carcinoma; Expt. R667, paclitaxel at MTD of 36 mg/kg/inj): 0.3 | MTD (Pat-21 breast carcinoma; paclitaxel, two courses of 3 doses every 4 days): 36 mg/kg/inj | Paclitaxel LCK [7]: 0.8 | Paclitaxel LCK [8]: 2.0 | cures [9]: 5 of 7

C/C(=C\c1csc(C)n1)[C@@H]1C[C@@H]2O[C@@H]2CCC[C@H](C)[C@H](O)[C@@H](C)C(=O)C(C)(C)[C@@H](O)CC(=O)O1 [Epothilone A]
Ratio of Polymerization Potency of Analog/Paclitaxel [1]: 0.4

Reference: patent publication US7312237B2, “Combination of epothilone analogs and chemotherapeutic agents for the treatment of prolilferative diseases” (Bristol-Myers Squibb Co., priority 2001, dated 2007)
